In article PMC8119294 (Biochemistry, 2020):

How the values were obtained:
[1] = target: KOP; settings: read-out: Ki at KOP; CHO cells; cited from earlier work
[2] = target: MOP; settings: read-out: Ki at MOP; CHO cells; cited from earlier work
[3] = system: mice; settings: radiant heat tail flick assay; cited from earlier work
[4] = target: DOP; settings: read-out: Ki at DOP; CHO cells; cited from earlier work
[5] = target: human opioid receptor OPRM_HUMAN (hMOP), wild type (Homo sapiens, UniProt P35372); format: cell-based; settings: for Emax: WT hMOP, normalized to Emax of DAMGO
[6] = target: hMOP H321F mutant (Homo sapiens, UniProt P35372, H321F); assay: Gαi-mediated cAMP inhibition assay, hMOP H321F mutant; format: cell-based; settings: for potency reduction at His321F mutant compared to wild-type receptor: EC50 mutant vs wild type; for decrease in efficacy at His321F mutant: Emax mutant vs wild type; for Emax: normalized to Emax of DAMGO
[7] = target: hMOP Asn129K mutant (Homo sapiens, UniProt P35372, N129K); assay: Gαi-mediated cAMP inhibition assay, hMOP Asn129K mutant; format: cell-based; settings: for Emax: normalized to Emax of DAMGO
[8] = system: human DOP; settings: HEK 293 cells, very low potency; cited from earlier work
[9] = system: human KOP; settings: HEK 293 cells; cited from earlier work
[10] = system: human MOP; settings: HEK 293 cells; cited from earlier work
[11] = system: rats; settings: hot plate assay; cited from earlier work
[12] = target: opioid receptors; settings: read-out: Ki for opioid receptors; cited from earlier work
[13] = target: α-adrenergic receptors; settings: read-out: Ki for α-adrenergic receptors; cited from earlier work
[14] = HEK 293T cells, wild type (WT) hMOP, cAMP assay, Gi
[15] = HEK 293T cells, hMOP H321F mutant, cAMP assay, Gi
[16] = HEK 293T cells, hMOP Asn129K mutant, cAMP assay, Gi

Sequence of hMOP H321F mutant (P35372 whole entry H321F): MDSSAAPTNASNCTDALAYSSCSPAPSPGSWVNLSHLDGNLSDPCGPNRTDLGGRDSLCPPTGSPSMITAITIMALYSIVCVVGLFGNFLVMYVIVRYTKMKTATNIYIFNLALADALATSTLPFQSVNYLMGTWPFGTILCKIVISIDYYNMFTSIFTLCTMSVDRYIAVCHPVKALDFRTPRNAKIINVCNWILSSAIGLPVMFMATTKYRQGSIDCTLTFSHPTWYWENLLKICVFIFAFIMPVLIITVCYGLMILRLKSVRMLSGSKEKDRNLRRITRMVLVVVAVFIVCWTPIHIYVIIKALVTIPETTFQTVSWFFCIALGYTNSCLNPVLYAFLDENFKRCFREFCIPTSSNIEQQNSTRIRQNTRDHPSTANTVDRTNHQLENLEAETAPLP
Sequence of human opioid receptor OPRM_HUMAN (hMOP), wild type (P35372 whole entry): as the sequence (P35372 whole entry H321F) above, with F321H counted along it
Sequence of hMOP Asn129K mutant (P35372 whole entry N129K): as the sequence (P35372 whole entry H321F) above, with N129K, F321H counted along it

Molecule | Ki [1] [µM] | Ki [2] [µM] | Ki [4] [µM] | Emax [5] [%] | potency reduction at His321F mutant compared to wild-type receptor ([6]; cAMP assay) [fold] | decrease in efficacy at His321F mutant ([6]; cAMP assay) [%] | Emax ([6]; hMOP H321F mutant) [%] | Emax ([7]; hMOP Asn129K mutant) [%] | functional activity at human DOP [8] | analgesic effect compared to morphine [3] | functional activity at human KOP [9] | functional activity at human MOP [10] | analgesic effect compared to morphine [11] | further results
CC[C@@H]1CN2CC[C@]3(Nc4cccc(OC)c4C3=O)[C@@H]2C[C@@H]1/C(=C\OC)C(=O)OC [MP, mitragynine pseudoindoxyl] | 0.024 ± 0.0009 | 0.0008 ± 0.0002 | 0.003 ± 0.0013 | 81±3.6 | 32 | > 25 | 58.9 ± 6.7 | 88 ± 2.97 | – | – | – | – | – | potency relative to morphine [3]: 1.5 fold; EC50 [5, 14]: 0.00055 µM; pEC50 ± SEM [5, 14]: 9.28±0.11; EC50 [6, 15]: 0.0169 µM; pEC50 ± SEM [6, 15]: 7.77 ± 0.27; EC50 [7, 16]: 0.0009 µM; pEC50 ± SEM [7, 16]: 9.04 ± 0.084
CC[C@@H]1CN2CC[C@@]3(O)C(=Nc4cccc(OC)c43)[C@@H]2C[C@@H]1/C(=C\OC)C(=O)OC [7OH, 7-hydroxymitragynine] | 0.132 ± 0.007 | 0.037 ± 0.004 | 0.091 ± 0.008 | 89±3.8 | 2.5 | > 25 | 60 ± 9 | 92 ± 3.2 | competitive antagonists | significantly more potent than morphine | competitive antagonists | partial agonists | significantly more potent than morphine | potency reduction at Asn129K mutant compared to wild-type receptor ([7]; EC50 mutant vs wild type, cAMP assay): 5 fold
mitragynine [MG] | – | 0.23 ± 0.047 | – | – | – | – | – | – | competitive antagonists | significantly lower than morphine | competitive antagonists | partial agonists | significantly lower than morphine | Ki [12]: 0.161 to 0.198 µM; Ki [13]: 1.34 to 9.29 µM
